Laboratory results published in US4877893A, “Process for the preparation of 2-(O-alkyl)-2-thio-1,3,2-oxathiophospholanes” (priority 1987, dated 1989).

Key:
Sclerotinia sp. = experiment: Fungicidal effect on paprika seeds on agar, colony diameter; type: cell-based; conditions: 5th day, control 41.50
Method: (§1) The test is carried out on paprika seeds placed on agar nutrient medium and impregnated with phytopathogenic Fungi (Alternaria sp., Penicillium sp., Sclerotinia sp.). The paprika seeds are treated with various doses of 2-(0-2'-chloroethyl)-2-thio-1,3,2-oxathiophospholane (Compound No. 1 of Table I) and the known fungicidal agent Aliette, respectively.
(§2) The concentration data relate to the active ingredient. Treatment is carried out by using a 20 EC prepared according to Example 27. Evaluation is carried out on the 5th day after treatment by measuring the diameter of the Fungi colonies.

Alternaria sp. = experiment: as above; type: cell-based; conditions: 5th day, control 36.62
Method: as §1, §2

Penicillium sp. = experiment: as above; type: cell-based; conditions: 5th day, control 23.35
Method: as §1, §2

Alternaria tenuis = experiment: Fungicidal effect on infected agar nutrient media, colony diameter; type: cell-based; conditions: 5th day after treatment, untreated control 36.8
Outline: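 Agar media (70 mm diameter, 10 mm thick) infected with Alternaria tenuis, treated with EC formulations at 1, 10, 100 and 1000 ppm active ingredient. Fungicidal effect read on day 5 after treatment as fungal colony diameter.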

[1] = system: Fusarium sp. and Alternaria sp.; experiment: Soil disinfection test, shoot up %; type: in vivo, sugar beet; conditions: 1 kg of active ingredient/ha; soil disinfectant granules; untreated control = 100
Method: (§3) The soil is watered and admixed with a Fusarium sp. and Alternaria sp. suspension. In the infected soil cotton and sugar beet seeds are sown, namely 10 seeds per replicate. Eight replicates are used in the test. The soil is treated with 2-(0-2'-chloroethyl)-2-thio-1,3,2-oxathiophospholane (Compound No. 1) in a dose of 1 kg of active ingredient.ha^- 1. Treatment is carried out with soil disinfectant granules prepared in an analogous manner to Example 33. Evaluation is carried out by determining the shoot up % related to the untreated control.

Sclerotinia sclerotinia = experiment: Fungicidal effect on infected agar nutrient media, colony diameter; type: cell-based; conditions: 3rd day after treatment, untreated control 41.7
Method: Agar nutrient media (Diameter 70 MM, thickness 10 mm) infected by Sclerotonia sclerotinia suspension are treated with 20 EC formulations prepared according to Example 27 and comprising 1, 10, 100 and 1000 ppm, respectively of the active ingredient of the Formula I. The fungicidal effect of the compositions is evaluated on the 3rd day after treatment by measuring the diameter of the Fungi colonies.

[2] = system: Fusarium sp. and Alternaria sp.; experiment: Soil disinfection test, shoot up %; type: in vivo, cotton; conditions: 1 kg of active ingredient/ha; soil disinfectant granules; untreated control = 100
Method: as §3

Penicillium cyclopium = experiment: Fungicidal effect on infected agar nutrient media, colony diameter; type: cell-based; conditions: 7th day after treatment, untreated 26.5
Outline: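 Agar media (70 mm diameter, 10 mm thick) infected with Penicillium cyclopium were treated with EC formulations at 1, 10, 100 and 1000 ppm active ingredient. Fungal colony diameter was measured on day 7 after treatment.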

[3] = system: sugar beet seeds strongly infected by pathogens; experiment: Seed dressing test, shoot up %; type: in vivo; conditions: related to untreated control = 100
Description: (§4) In this test cotton, maize, sunflower and sugar beet seeds strongly infected by pathogens and treated with different doses of 2-(0-2'-chloroethyl)-2-thio-1,3,2-oxathiophospholane (Compound No. 1) are used. The doses amount to 50, 100 and 200 g of active ingredient, respectively. As reference seeds being either untreated or treated with Mancozeb (manganese +zinc/-ethylene bis-dithiocarbamte) 0.8 kg/t +Benomyl (1-butyl carbamoyl-benzimidazole-2-methylcarbamate) 0.5 kg/t are used.
(§5) Compound No. 1 of the present invention is formulated as 50 WP in an analogous manner to Example 31. The test is carried out in six replicates, by sowing 10 seeds in each replicate. The results are evaluated by determining the shoot up % related to the control.

[4] = system: maize seeds strongly infected by pathogens; experiment: Seed dressing test, shoot up %; type: in vivo; conditions: related to untreated control = 100
Description: as §4, §5

[5] = system: sunflower seeds strongly infected by pathogens; experiment: Seed dressing test, shoot up %; type: in vivo; conditions: related to untreated control = 100
Description: as §4, §5

[6] = system: cotton seeds strongly infected by pathogens; experiment: Seed dressing test, shoot up %; type: in vivo; conditions: related to untreated control = 100
Description: as §4, §5

SMILES: CCO[PH](=O)O [Aliette, aluminum-tris-(O-ethyl-phosphate), reference compound]
- Diameter of Colony (MM) Sclerotinia (Sclerotinia sp.; 1 ppm): 40.45 MM
- Diameter of Colony (MM) Sclerotinia (Sclerotinia sp.; 5 ppm): 39.64 MM
- Diameter of Colony (MM) Sclerotinia (Sclerotinia sp.; 10 ppm): 36.44 MM
- Diameter of Colony (MM) Sclerotinia (Sclerotinia sp.; 50 ppm): 28.06 MM
- Diameter of Colony (MM) Sclerotinia (Sclerotinia sp.; 100 ppm): 22.40 MM
- Diameter of Colony (MM) Sclerotinia (Sclerotinia sp.; 1000 ppm): 6.75 MM
- Diameter of Colony (MM) Alternaria (Alternaria sp.; 1 ppm): 34.05 MM
- Diameter of Colony (MM) Alternaria (Alternaria sp.; 5 ppm): 35.16 MM
- Diameter of Colony (MM) Alternaria (Alternaria sp.; 10 ppm): 29.41 MM
- Diameter of Colony (MM) Alternaria (Alternaria sp.; 50 ppm): 26.13 MM
- Diameter of Colony (MM) Alternaria (Alternaria sp.; 100 ppm): 19.16 MM
- Diameter of Colony (MM) Alternaria (Alternaria sp.; 1000 ppm): 8.92 MM
- Diameter of Colony (MM) Penicillium (Penicillium sp.; 1 ppm): 21.35 MM
- Diameter of Colony (MM) Penicillium (Penicillium sp.; 5 ppm): 20.66 MM
- Diameter of Colony (MM) Penicillium (Penicillium sp.; 10 ppm): 18.45 MM
- Diameter of Colony (MM) Penicillium (Penicillium sp.; 50 ppm): 17.63 MM
- Diameter of Colony (MM) Penicillium (Penicillium sp.; 100 ppm): 16.62 MM
- Diameter of Colony (MM) Penicillium (Penicillium sp.; 1000 ppm): 10.15 MM

SMILES: S=P1(OCCCl)OCCS1 (centres unmarked) [Compound 1, 2-(O-2'-chloroethyl)-2-thio-1,3,2-oxathiophospholane]
- Diameter of colony (mm) (Alternaria tenuis; 1 ppm): 33.5 mm
- Diameter of colony (mm) (Alternaria tenuis; 10 ppm): 25.8 mm
- Diameter of colony (mm) (Alternaria tenuis; 100 ppm): 7.6 mm
- Diameter of colony (mm) (Alternaria tenuis; 1000 ppm): 0 mm
- Shoot up % Sugar beet [1]: 346%
- Diameter of colony (mm) (Sclerotinia sclerotinia; 1 ppm): 39.4 mm
- Diameter of colony (mm) (Sclerotinia sclerotinia; 10 ppm): 31.7 mm
- Diameter of colony (mm) (Sclerotinia sclerotinia; 100 ppm): 3.5 mm
- Diameter of colony (mm) (Sclerotinia sclerotinia; 1000 ppm): 0 mm
- Shoot up % Cotton [2]: 239%
- Diameter of colony (mm) (Penicillium cyclopium; 1 ppm): 23.2 mm
- Diameter of colony (mm) (Penicillium cyclopium; 10 ppm): 20.0 mm
- Diameter of colony (mm) (Penicillium cyclopium; 100 ppm): 8.0 mm
- Diameter of colony (mm) (Penicillium cyclopium; 1000 ppm): 0 mm
- Shoot up % Sugar beet ([3]; 50 g/t): 205%
- Shoot up % Sugar beet ([3]; 100 g/t): 312%
- Shoot up % Sugar beet ([3]; 200 g/t): 156%
- Shoot up % Maize ([4]; 50 g/t): 121%
- Shoot up % Maize ([4]; 100 g/t): 133%
- Shoot up % Maize ([4]; 200 g/t): 125%
- Shoot up % Sunflower ([5]; 50 g/t): 132%
- Shoot up % Sunflower ([5]; 100 g/t): 154%
- Shoot up % Sunflower ([5]; 200 g/t): 129%
- Shoot up % Cotton ([6]; 50 g/t): 146%
- Shoot up % Cotton ([6]; 100 g/t): 218%
- Shoot up % Cotton ([6]; 200 g/t): 255%
- Diameter of Colony (MM) Sclerotinia (Sclerotinia sp.; 1 ppm): 39.37 MM
- Diameter of Colony (MM) Sclerotinia (Sclerotinia sp.; 5 ppm): 40.62 MM
- Diameter of Colony (MM) Sclerotinia (Sclerotinia sp.; 10 ppm): 31.75 MM
- Diameter of Colony (MM) Sclerotinia (Sclerotinia sp.; 50 ppm): 10.62 MM
- Diameter of Colony (MM) Sclerotinia (Sclerotinia sp.; 100 ppm): 3.50 MM
- Diameter of Colony (MM) Sclerotinia (Sclerotinia sp.; 1000 ppm): 0 MM
- Diameter of Colony (MM) Alternaria (Alternaria sp.; 1 ppm): 33.50 MM
- Diameter of Colony (MM) Alternaria (Alternaria sp.; 5 ppm): 32.25 MM
- Diameter of Colony (MM) Alternaria (Alternaria sp.; 10 ppm): 25.87 MM
- Diameter of Colony (MM) Alternaria (Alternaria sp.; 50 ppm): 16.75 MM
- Diameter of Colony (MM) Alternaria (Alternaria sp.; 100 ppm): 7.62 MM
- Diameter of Colony (MM) Alternaria (Alternaria sp.; 1000 ppm): 0 MM
- Diameter of Colony (MM) Penicillium (Penicillium sp.; 1 ppm): 22.20 MM
- Diameter of Colony (MM) Penicillium (Penicillium sp.; 5 ppm): 20.05 MM
- Diameter of Colony (MM) Penicillium (Penicillium sp.; 10 ppm): 20.05 MM
- Diameter of Colony (MM) Penicillium (Penicillium sp.; 50 ppm): 19.40 MM
- Diameter of Colony (MM) Penicillium (Penicillium sp.; 100 ppm): 8.12 MM
- Diameter of Colony (MM) Penicillium (Penicillium sp.; 1000 ppm): 0 MM
